# Tests used:
# [1] = test system: C57BL/6 mice; experiment: Cannabinoid tetrad: locomotor activity; assay type: in vivo, mouse; conditions: for decrease of locomotor activity below the vehicle control condition: highest tested dose
# [2] = test system: C57BL/6 mice; experiment: Cannabinoid tetrad: antinociception; assay type: in vivo, mouse; conditions: for tail withdrawal latency, % of the maximum: maximal latency 10 sec
# [3] = test system: C57BL/6 mice; experiment: Cannabinoid tetrad: hypothermia; assay type: in vivo, mouse; conditions: for reduction of rectal temperature below the physiological range: highest tested dose
# [4] = test system: C57BL/6 mice; experiment: Cannabinoid tetrad: catalepsy; assay type: in vivo, mouse
# [5] = target: T1, CB1 receptors (Mus musculus, UniProt P47746); experiment: [35S]GTPγS binding; conditions: for EC50: N=3
# [6] = test system: HIM (human intestinal microsomes); experiment: Oxidative metabolism by human microsomes; assay type: in vitro ADME; conditions: 50 μM 5F-AKB48, HIM 1 μg/μl, 60 min
# [7] = test system: HBM (human brain microsomes); experiment: Oxidative metabolism by human microsomes; assay type: in vitro ADME; conditions: 50 μM 5F-AKB48, HBM 1 μg/μl, 60 min
# [8] = target: T1, CB1 receptors; experiment: Competition receptor binding vs [3H]CP-55,940 in mouse brain membranes; conditions: pKi, displacement of 0.2 nM [3H]CP-55,940, mouse brain membranes, N=3
# [9] = test system: C57BL/6 mice; experiment: Radiotelemetry of core temperature with 1-ABT pretreatment; assay type: in vivo, mouse
# [10] = test system: HLM (human liver microsomes); experiment: Oxidative metabolism by human microsomes; assay type: in vitro ADME; conditions: 50 μM 5F-AKB48, mixed gender HLM 1 μg/μl, 60 min
# [11] = rimonabant 10.0 mg/kg i.p. before 3.2 mg/kg 5F-AKB48
# [12] = rimonabant 10.0 mg/kg i.p. before 32 mg/kg Δ9-THC
# [13] = 5F-AKB48 3.2 mg/kg, mice pretreated with 100 mg/kg 1-ABT
# [14] = 5F-AKB48 3.2 mg/kg, vehicle-pretreated mice
# T1 sequence (P47746 whole entry): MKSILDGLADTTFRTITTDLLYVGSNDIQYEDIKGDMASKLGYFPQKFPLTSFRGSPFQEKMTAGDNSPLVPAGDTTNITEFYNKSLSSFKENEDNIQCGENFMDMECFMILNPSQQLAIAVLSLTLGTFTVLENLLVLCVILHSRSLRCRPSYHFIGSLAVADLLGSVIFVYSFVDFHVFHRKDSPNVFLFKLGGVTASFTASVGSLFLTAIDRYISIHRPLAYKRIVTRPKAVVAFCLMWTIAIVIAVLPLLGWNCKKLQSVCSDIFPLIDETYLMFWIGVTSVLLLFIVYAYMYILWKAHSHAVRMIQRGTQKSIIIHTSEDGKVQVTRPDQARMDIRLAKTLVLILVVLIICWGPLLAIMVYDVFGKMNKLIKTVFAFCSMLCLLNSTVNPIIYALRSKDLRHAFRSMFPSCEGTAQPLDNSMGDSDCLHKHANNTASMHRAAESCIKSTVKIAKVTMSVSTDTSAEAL
smiles,measurement,setting,value
"CCCCCc1cc(O)c2c(c1)OC(C)(C)[C@@H]1CCC(C)=C[C@@H]21 [Δ^9-THC, Δ^9-tetrahydrocannabinol]",decrease of locomotor activity below the vehicle control condition,[1]; Δ9-THC 32 mg/kg i.p.,approximately 5 fold
same,duration of antinociceptive effects (still apparent),[2]; Δ9-THC 32 mg/kg i.p.,at least 6 hours
same,"tail withdrawal latency, % of the maximum","[2]; Δ9-THC 32 mg/kg i.p., by 30 min post-injection",approximately 90%
same,duration of hypothermic effects (still apparent after drug administration),[3]; Δ9-THC 32 mg/kg i.p.,≥ 6 h
same,reduction of rectal temperature below the physiological range,[3]; Δ9-THC 32 mg/kg i.p.,approximately 4 °
same,duration of cataleptic effects (still apparent),[4]; Δ9-THC 32 mg/kg i.p.,≥ 6 h
same,horizontal bar latency,"[4]; Δ9-THC 32 mg/kg i.p., by 15 min post-injection, 30 sec maximum",~30 s
Cc1c(C(=O)NN2CCCCC2)nn(-c2ccc(Cl)cc2Cl)c1-c1ccc(Cl)cc1 [rimonabant],effect of prior rimonabant on hypolocomotor effects of 5F-AKB48,[1]; [11],partially attenuated
same,effect of prior rimonabant on hypolocomotor effects of Δ9-THC,[1]; [12],partially attenuated
same,effect of prior rimonabant on antinociceptive effects of 5F-AKB48,[2]; [11],completely blocked
same,effect of prior rimonabant on antinociceptive effects of Δ9-THC,[2]; [12],completely blocked
same,effect of prior rimonabant on hypothermic effects of 5F-AKB48,[3]; [11],completely blocked
same,effect of prior rimonabant on hypothermic effects of Δ9-THC,[3]; [12],completely blocked
same,effect of prior rimonabant on cataleptic effects of 5F-AKB48,[4]; [11],completely blocked
same,effect of prior rimonabant on cataleptic effects of Δ9-THC,[4]; [12],completely blocked
"O=C(NC12CC3CC(CC(C3)C1)C2)c1nn(CCCCCF)c2ccccc12 [5F-AKB48, N-(adamantan-1-yl)-1-(5-fluoropentyl)-1H-indazole-3-carboxamide]",G protein activation by 1 μM compound on co-incubation with rimonabant,"[5]; 1 μM compound + rimonabant 100 nM, mouse brain membranes",complete reversal
same,EC50,"[5]; pEC50, [35S]GTPγS binding, mouse brain membranes",6.24 nM
same,EC50,"[5]; potency (EC50), [35S]GTPγS binding, mouse brain membranes 25 μg",7.7 nM
same,Emax,"[5]; read-out: Emax, increase of [35S]GTPγS binding",182%
same,oxidative activity / metabolite production,[6],significant amount of activity
same,decrease of locomotor activity below the vehicle control condition,[1]; 5F-AKB48 3.2 mg/kg i.p.,approximately 5 fold
same,duration of antinociceptive effects (still apparent),[2]; 5F-AKB48 3.2 mg/kg i.p.,at least 6 hours
same,"tail withdrawal latency, % of the maximum","[2]; 5F-AKB48 3.2 mg/kg i.p., by 15 min post-injection",approximately 90%
same,oxidative activity,[7],did not show any activity
same,time by which hypothermic effects completely resolved,[3]; 5F-AKB48 3.2 mg/kg i.p.,≤ 4 h
same,reduction of rectal temperature below the physiological range,[3]; 5F-AKB48 3.2 mg/kg i.p.,approximately 4 °
same,Ki,[8],0.665 nM
same,duration of hypothermic action,[9]; [13],at least 12 hours
same,minimum core temperature below the physiological range,[9]; [13],approximately 7 °
same,minimum core temperature below the physiological range,[9]; [14],approximately 7 °
same,time by which hypothermic effects completely resolved,[9]; [14],≤ 4 h
same,"area under the curve for hypothermic effects, 1-ABT-treated vs vehicle mice","[9]; 5F-AKB48 3.2 mg/kg, 100 mg/kg 1-ABT pretreatment",approximately 5 fold
same,production of hydroxylated metabolites,[10],highest amount
same,time by which cataleptic effects largely resolved,[4]; 5F-AKB48 3.2 mg/kg i.p.,≤ 3 h
same,horizontal bar latency,"[4]; 5F-AKB48 3.2 mg/kg i.p., any time point, 30 sec cut-off",< 30 s
"Nn1nnc2ccccc21 [1-ABT, reference compound]",effect on core temperature,"[9]; 100 mg/kg 1-ABT alone, 2 hours",no systematic changes in temperature

# Reference: publication PMC7415729 (Pharmacology, biochemistry, and behavior, 2020)
